Common to all, as to assay type: cell-based, mouse
Test [1] deals with primary OG2 neural progenitor cells. Put plainly: iPS cell induction from neural progenitor cells by retroviral transduction and BIX01294 treatment. As to the method: The reporter neural progenitor cells were generated using a well established protocol by differentiating the Oct4-GiP mESCs grown in monolayer on gelatin in a chemically defined medium/CDM condition in the absence of serum and other growth factors/cytokines at low cell density for eight days, followed by neurophere formation and subsequent serial passaging in single cells in neural cell expansion media supplemented with 10 ng/ml of bFGF and EGF in monolayer for over six passages/24 days. The resulting neural progenitor cells were homogenous by cell morphology and neural marker expression, and were confirmed to be GFP negative and puromycin sensitive. Such neural progenitor cells plated in monolayer in conventional mESC growth media were transduced with combinations of four, three, or two of the four factors, followed by treating the transduced cells with individual small molecules from a small known drug collection in a typical 6-well format. The compound treatment and culture were continued for additional ten days before puromycin was added. The number of green and puro-resistant colonies was counted at day 14. In comparison to the only four-gene transduced neural cells as the positive control, compound conditions that generated more green colonies than the corresponding gene-only conditions were picked as primary hits. To further confirm these primary hit conditions, we chose to use a late passage of mouse CNS neural progenitor cells (Do, J. T. et al., Stem Cells 25, 1013-1020 (2007)) that were derived from fetal brain of OG2^+/−/ROSA26^+/− transgenic mice (which contain an Oct4-GFP reporter) and expanded in monolayer under the same neural CDM condition as the above with 10 ng/ml of bFGF and EGF. Such cells truly from a non-pluripotent tissue would be devoid of concerns of any contaminating ES cell in the above screening system, which is although highly unlikely with all appropriate controls. Similar culture conditions and reprogramming assays were performed using the OG2 neural progenitor cells except that puromycin was not used and green colonies were picked out and characterized by staining of Nanog, SSEA1 and ALP.
mESC-derived or primary OG2 mouse neural progenitor cells were plated into Matrigel (1:50, BD Biosciences) coated 6-well plates at 3.5×10^4 cells/well in the neural progenitor cell expansion media. After one day these cells were transduced with retrovirus for overnight, and the medium was changed into the mESC growth media [DMEM, 5% FBS, 10% KSR, 1× non-essential amino acids (Gibco), 2 mM L-glutamine (Gibco), 0.1 mM β-mercaptoethanol (Gibco) and 10^3 unit/ml LIF (Chemicon)] with or without BIX01294 (0.5-1 μM). GFP-positive iPS cell colonies appeared after 9-14 days, and were picked out and expanded on MEF feeder cells with the mESC growth media.

Test [2] relates to 129 MEFs transduced with OK (Oct4 and Klf4). Put plainly: Screen for iPSC generation from OK-transduced 129 MEFs (ESC-like colony morphology, ALP staining). As to the method: Unmodified MEFs derived from E13-14 embryos of the 129 mice were used for the initial screen. MEFs were plated on Matrigel at 3.5×10^4 cells/well of a 6-well plate and transduced with OK (retroviral vectors expressing Oct4 and Klf4) alone. Within 14-21 days, treated cells were assessed for the appearance of colonies that had the characteristic embryonic stem cell (ESC), colony morphology and were positive for the pluripotency marker alkaline phosphatase (ALP). Such OK-transduced cells generated only a few small non-compact colonies, which were weakly positive for ALP expression. These colonies initially appeared within 21 days after viral transduction and were difficult to expand. Therefore, such assay system offered a clean background for the identification of small molecules having desirable reprogramming inducing activity. Using this system, compounds from a library of around 2000 known small molecules (see Experimental Procedures below) were screened and were identified as hits when they induced the appearance of ESC colonies that were strongly positive for ALP within 14-21 days after treatment. This image-based method provided a more accurate assessment of reprogramming as compared to homogenous reporter-based assay. BIX appeared to have the strongest effect with reproducible induction of more than 1-2 compact ESC-like colonies with high ALP expression. We observed that when MEFs were treated with BIX after OK viral transduction, compact colonies with strong ALP expression could be readily detected within approximately 14-21 days. These cells were also positive for Nanog, Oct4 and SSEA-1 expression. […] However, the reprogramming efficiency in MEFs transduced with OK and treated with BIX was still low, about 2 colonies/3.5×10^4 cells, in comparison to the four factor-induced reprogramming of MEFs or the OK/BIX NPC reprogramming (Shi, Y. et al., Cell Stem Cell, 2:525-528 (2008)). Therefore, we conducted a second screen using a similar protocol, but where BIX was added to the basal media after OK viral transduction. This provided a more permissive platform to identify new small molecules that could further improve reprogramming efficiency. More importantly, this second screen could facilitate discovery of small molecules that impact reprogramming in a more specific manner, for example by acting on signal transduction pathways rather than on histone or DNA modifying enzymes. In this second screen, we again assayed the library of around 2000 known small molecules (see Experimental Procedures), and confirmed two compounds that were able to act in a synergistic manner with BIX to improve reprogramming based on the criteria of the screen. […] Therefore, RG108 was not pursued further for this study. […]

The subject of a further test is mES R1 cells. Description: Proliferation assay. To be noted: 2 μM BayK, 1 μM BIX or both; 15, 24 and 48 hours; compared to DMSO, n=3. On the procedure:
mES R1 cells were plated onto gelatin-coated 6-well plates at a density of 2×10^5 cells/well in complete mES cell media. Upon cell attachment, app. 12 hours, the cells were treated either with DMSO, 1 μM BIX, 2 μM BayK, and a combination of both, in triplicate. At 15, 24 and 48 hours, the cells were detached using trypsin, and counted using a hemocytometer. Trypan blue (Sigma-Aldrich, St. Louis, Mo.) was used for dead cell exclusion.

As to `COc1cc2nc(N3CCCN(C)CC3)nc(NC3CCN(Cc4ccccc4)CC3)c2cc1OC` [BIX01294], the reprogramming efficiency result in test [1] (Klf4/Sox2/cMyc with BIX01294, absence of Oct4 expression) is on record as “relatively low”; in test [2] (MEFs transduced with OK and treated with compound), “about 2 colonies/3.5×10^4 cells”. Also, the kinetics of reprogramming entry in test [1] (Oct4/Klf4 viral transduction, BIX01294 0.5-1 μM) was “didn't significantly shorten the kinetics of reprogramming”. The “reprogramming efficiency (GFP+ iPS cell colonies)” value in test [1] (Oct4/Klf4 viral transduction, BIX01294 0.5-1 μM, 3.5×10^4 cells/well) was “significantly improve the reprogramming efficiency to or higher than the level of using viral transduction of all four factors”. The “time until GFP+ iPS cell colonies appeared” value in test [1] (after transduction with Oct4/Klf4 retroviruses and BIX01294 treatment) stood at 12 days. In test [1] (viral transduction of Klf4, Sox2 and cMyc, absence of Oct4 expression, three factors alone gave no colony), the “generation of iPS cells” value was “can also generate iPS cells”. Moreover, the “number of ALP+ colonies that closely resemble the mESC morphology” value in test [2] (OK-transduced MEFs) was “about 2 colonies”. Further, the “induction of compact ESC-like colonies with high ALP expression” value in test [2] (primary screen, compounds 0.5-2 μM, 14-21 days, 3.5×10^4 cells/well) is 1-2 colonies. Moreover, in the test with mES R1 cells, the “proliferation of mES cells (cell number)” value was “No significant difference”.
